Laboratory results: ChEMBL document CHEMBL1201862, “PubChem BioAssay data set” (2004)
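Compound exposure: 48 hours, 5 concentrations, 96-well plates. Abbreviation: GI50, concentration required for 50% inhibition of growth.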 Activity calls are given as the source filed them. Cut-off read from the data, not from the text of the source: active = GI50 up to about 1.1 µM and inactive = higher.

Legend:
Test in all cases: NCI-60 cell line screen, 48 h
NCI-H460 = test system: NCI-H460
SF-268 = test system: SF-268
LOX IMVI = test system: LOX IMVI
UACC-257 = test system: UACC-257
KM12 = test system: KM12
IGROV-1 = test system: IGROV-1
SK-OV-3 = test system: SK-OV-3
SN12C = test system: SN12C
SNB-75 = test system: SNB-75
SNB-19 = test system: SNB-19
UACC-62 = test system: UACC-62
OVCAR-4 = test system: OVCAR-4
HCC 2998 = test system: HCC 2998
HOP-62 = test system: HOP-62
EKVX = test system: EKVX
MDA-MB-231 = test system: MDA-MB-231
RXF 393 = test system: RXF 393
SF-295 = test system: SF-295
HT-29 = test system: HT-29
HCT-15 = test system: HCT-15

c1ccc2c(c1)-c1ccccc1C2N1CC2CCC(CC2)C1
GI50 (NCI-H460): 19.8 µM (inactive)
GI50 (SF-268): 15.5 µM (inactive)
GI50 (LOX IMVI): 18.7 µM (inactive)
GI50 (UACC-257): 20.6 µM (inactive)
GI50 (KM12): 19 µM (inactive)
GI50 (IGROV-1): 20.7 µM (inactive)
GI50 (SK-OV-3): 44.1 µM (inactive)
GI50 (SN12C): 23.9 µM (inactive)
GI50 (SNB-75): 27 µM (inactive)
GI50 (SNB-19): 29.4 µM (inactive)
GI50 (UACC-62): 19.9 µM (inactive)
GI50 (OVCAR-4): 31.9 µM (inactive)
GI50 (HCC 2998): 16.9 µM (inactive)
GI50 (HOP-62): 25.2 µM (inactive)
GI50 (EKVX): 21.7 µM (inactive)
GI50 (MDA-MB-231): 18.8 µM (inactive)
GI50 (RXF 393): 17.8 µM (inactive)
GI50 (SF-295): 19.3 µM (inactive)
GI50 (HT-29): 16.8 µM (inactive)
GI50 (HCT-15): 16.8 µM

Cc1cc(Cl)ccc1NC(=O)/C(CC(=O)CC(c1ccccc1)c1c(O)c2ccccc2oc1=O)=N\O (stereo not drawn)
GI50 (NCI-H460): > 100 µM (inactive)
GI50 (SF-268): > 100 µM (inactive)
GI50 (LOX IMVI): > 100 µM (inactive)
GI50 (UACC-257): > 100 µM (inactive)
GI50 (KM12): > 100 µM (inactive)
GI50 (IGROV-1): > 100 µM (inactive)
GI50 (SK-OV-3): > 100 µM (inactive)
GI50 (SN12C): > 100 µM (inactive)
GI50 (SNB-75): > 100 µM (inactive)
GI50 (SNB-19): > 100 µM (inactive)
GI50 (UACC-62): > 100 µM (inactive)
GI50 (OVCAR-4): > 100 µM (inactive)
GI50 (HCC 2998): > 100 µM (inactive)
GI50 (HOP-62): > 100 µM (inactive)
GI50 (EKVX): > 100 µM (inactive)
GI50 (MDA-MB-231): > 100 µM (inactive)
GI50 (RXF 393): > 100 µM (inactive)
GI50 (SF-295): > 100 µM (inactive)
GI50 (HT-29): > 100 µM (inactive)
GI50 (HCT-15): > 100 µM

C[C@@H]1[C@@H](C)C(c2ccccc2)O[Si]1(C(C)(C)C)C(C)(C)C (stereo partly drawn)
GI50 (NCI-H460): 17.4 µM (inactive)
GI50 (SF-268): 25.2 µM (inactive)
GI50 (LOX IMVI): 16.9 µM (inactive)
GI50 (UACC-257): 17.1 µM (inactive)
GI50 (KM12): 16.3 µM (inactive)
GI50 (IGROV-1): 16.7 µM (inactive)
GI50 (SK-OV-3): 26.5 µM (inactive)
GI50 (SN12C): 17.4 µM (inactive)
GI50 (SNB-75): 16 µM (inactive)
GI50 (SNB-19): 13.8 µM (inactive)
GI50 (UACC-62): 19.1 µM (inactive)
GI50 (OVCAR-4): 37.8 µM (inactive)
GI50 (HCC 2998): 19.8 µM (inactive)
GI50 (HOP-62): 17.5 µM (inactive)
GI50 (EKVX): 17.1 µM (inactive)
GI50 (MDA-MB-231): 16.9 µM (inactive)
GI50 (RXF 393): 17.1 µM (inactive)
GI50 (SF-295): 16.6 µM (inactive)
GI50 (HT-29): 15.2 µM (inactive)
GI50 (HCT-15): 23.1 µM

CCOP(=O)(OCC)/C(C#N)=C/c1cccn1C
GI50 (NCI-H460): > 100 µM (inactive)
GI50 (SF-268): > 100 µM (inactive)
GI50 (LOX IMVI): > 100 µM (inactive)
GI50 (UACC-257): > 100 µM (inactive)
GI50 (KM12): > 100 µM (inactive)
GI50 (IGROV-1): > 100 µM (inactive)
GI50 (SK-OV-3): > 100 µM (inactive)
GI50 (SN12C): > 100 µM (inactive)
GI50 (SNB-75): > 100 µM (inactive)
GI50 (SNB-19): > 100 µM (inactive)
GI50 (UACC-62): > 100 µM (inactive)
GI50 (OVCAR-4): > 100 µM (inactive)
GI50 (HCC 2998): > 100 µM (inactive)
GI50 (HOP-62): > 100 µM (inactive)
GI50 (EKVX): > 100 µM (inactive)
GI50 (MDA-MB-231): > 100 µM (inactive)
GI50 (RXF 393): > 100 µM (inactive)
GI50 (SF-295): > 100 µM (inactive)
GI50 (HT-29): > 100 µM (inactive)
GI50 (HCT-15): > 100 µM

CC(C)C[S+]1C2=C(CC(C)(C)CC2=O)[N-]c2ccccc21 (stereo not drawn)
GI50 (NCI-H460): > 100 µM (inactive)
GI50 (SF-268): > 100 µM (inactive)
GI50 (LOX IMVI): > 100 µM (inactive)
GI50 (UACC-257): > 100 µM (inactive)
GI50 (KM12): > 100 µM (inactive)
GI50 (IGROV-1): > 100 µM (inactive)
GI50 (SK-OV-3): > 100 µM (inactive)
GI50 (SN12C): > 100 µM (inactive)
GI50 (SNB-75): > 100 µM (inactive)
GI50 (SNB-19): > 100 µM (inactive)
GI50 (UACC-62): > 100 µM (inactive)
GI50 (OVCAR-4): > 100 µM (inactive)
GI50 (HCC 2998): > 100 µM (inactive)
GI50 (HOP-62): > 100 µM (inactive)
GI50 (EKVX): > 100 µM (inactive)
GI50 (MDA-MB-231): > 100 µM (inactive)
GI50 (RXF 393): > 100 µM (inactive)
GI50 (SF-295): > 100 µM (inactive)
GI50 (HT-29): > 100 µM (inactive)
GI50 (HCT-15): > 100 µM

Cc1cc(S(=O)(=O)Nc2nc(-c3ccccn3)n[nH]2)c(S)cc1Cl
GI50 (NCI-H460): 10.6 µM (inactive)
GI50 (SF-268): 17.7 µM (inactive)
GI50 (LOX IMVI): 27.2 µM (inactive)
GI50 (UACC-257): 30.9 µM (inactive)
GI50 (KM12): 20.4 µM (inactive)
GI50 (IGROV-1): 25.3 µM (inactive)
GI50 (SK-OV-3): 12.9 µM (inactive)
GI50 (SN12C): 36.2 µM (inactive)
GI50 (SNB-75): 28.1 µM (inactive)
GI50 (SNB-19): 16.9 µM (inactive)
GI50 (UACC-62): 7.96 µM (inactive)
GI50 (OVCAR-4): 18.6 µM (inactive)
GI50 (HCC 2998): 15 µM (inactive)
GI50 (HOP-62): 9.75 µM (inactive)
GI50 (EKVX): 16.1 µM (inactive)
GI50 (MDA-MB-231): 29.2 µM (inactive)
GI50 (RXF 393): 17.4 µM (inactive)
GI50 (HT-29): 15.3 µM (inactive)
GI50 (HCT-15): 5.68 µM

CC[C@](C)(O)C(=O)O[C@H]1C(=O)O[C@@H]2C[C@H]3C(C)=CC(=O)[C@@H](O)[C@]3(C)[C@H]3[C@@]4(O)OC[C@]32[C@@H]1[C@@H](C)[C@H]4O [GLAUCARUBINONE]
GI50 (NCI-H460): 0.0912 µM (active)
GI50 (SF-268): 0.0661 µM (active)
GI50 (LOX IMVI): 0.0354 µM (active)
GI50 (UACC-257): 0.0675 µM (active)
GI50 (KM12): 0.0604 µM (active)
GI50 (IGROV-1): 0.05 µM (active)
GI50 (SK-OV-3): 1.02 µM (active)
GI50 (SN12C): 0.158 µM (active)
GI50 (SNB-75): 0.0585 µM (active)
GI50 (SNB-19): 0.0933 µM (active)
GI50 (UACC-62): 0.051 µM (active)
GI50 (OVCAR-4): 0.321 µM (active)
GI50 (HCC 2998): 0.0679 µM (active)
GI50 (HOP-62): 0.0794 µM (active)
GI50 (EKVX): 0.0545 µM (active)
GI50 (MDA-MB-231): 0.946 µM (active)
GI50 (RXF 393): 0.05 µM (active)
GI50 (SF-295): 0.116 µM (active)
GI50 (HCT-15): 0.0885 µM
